Measured values as given in patent US20240208954A1, “OXADIAZOLE COMPOUND, PREPARATION METHOD THEREFOR, PHARMACEUTICAL COMPOSITION AND USE THEREOF” (SHANGHAI INSTITUTE OF MATERIA MEDICA, CHINESE ACADEMY OF …, priority 2020, published 2024).
“And” between values parts separate entries of the source, which are not always exact repeats. Equal values may be shown once. Read-outs that look alike come from different tables or passages of the source.

Experiment: Preliminary assessment of in vivo pharmacokinetics in rats
Settings: for MRT inf: read-out: MRT0-∞
[1] = rat, plasma, iv, 2 mg/kg, rats, intravenous 2 mg/kg, mean
[2] = rat, plasma, oral, 20 mg/kg, intragastric 20 mg/kg, individual animals 4-6, read-out: Plasma drug concentrations in rats
[3] = rat, plasma, oral, 20 mg/kg, intragastric 20 mg/kg, mean, read-out: Plasma drug concentrations in rats
[4] = rat, plasma, po, 20 mg/kg, rats, intragastric 20 mg/kg, individual animals 4-6
[5] = rat, plasma, po, 20 mg/kg, rats, intragastric 20 mg/kg, mean
[6] = rats, intragastric 20 mg/kg, individual animals 4-6, listed as DC411151
[7] = rats, intravenous 2 mg/kg, individual animals 1-3, listed as DC411151, 2 mg/kg

## CC(C)Oc1ccc(-c2nc(-c3ccc(CN4CC(C(=O)O)C4)c4ccccc34)no2)cc1C#N.Cl [Compound A1, 1-((4-(5-(3-cyano-4-isopropoxyphenyl)-1,2,4-oxadiazol-3-yl)naphthalen-1-yl)methyl) azetidine-3-carboxylic acid hydrochloric acid]
rat, plasma, iv, 2 mg/kg, rats, intravenous 2 mg/kg, individual animals 1-3, read-out: AUC0-t
  AUC0-t: 3550 ng·h/mL
rat, plasma, iv, 2 mg/kg, rats, intravenous 2 mg/kg, individual animals 1-3
  MRT inf: 1.2 h
rat, plasma, iv, 2 mg/kg, rats, intravenous 2 mg/kg, individual animals 1-3, read-out: Vss
  Vd: 0.672 L/kg
[1]
  AUC(0-inf): 3860 ng·h/mL
  MRT inf: 1.47 h
rat, plasma, iv, 2 mg/kg, rats, intravenous 2 mg/kg, mean, read-out: AUC0-t
  AUC0-t: 3850 ng·h/mL
rat, plasma, oral, 20 mg/kg, intragastric 20 mg/kg, 0.25 h, mean, read-out: Plasma drug concentrations in rats
  concentration at 0.25 h: 1270 ng/mL
[2]
  concentration at 0.5 h: 3130 ng/mL
  concentration at 1 h: 2560 ng/mL
  concentration at 2 h: 2290 ng/mL
  concentration at 4 h: 884 ng/mL
  concentration at 6 h: 322 ng/mL
  concentration at 8 h: 65.1 ng/mL
  concentration at 24 h: 4.33 ng/mL
[3]
  concentration at 0.5 h: 2430 ng/mL
  concentration at 1 h: 2570 ng/mL
  concentration at 2 h: 1890 ng/mL
  concentration at 4 h: 787 ng/mL
  concentration at 6 h: 320 ng/mL
  concentration at 8 h: 62 ng/mL
  concentration at 24 h: 3.25 ng/mL
rat, plasma, oral, rats, 20 mg/kg by gavage vs 2 mg/kg intravenous, read-out: absolute bioavailability
  bioavailability: 22.8%
rat, plasma, po, 20 mg/kg, rats, 20 mg/kg by gavage, range over animals, read-out: peak time Tmax
  Tmax: 0.5 to 1 h
[4]
  AUC(0-inf): 9600 ng·h/mL
  half-life: 2.45 h
  MRT inf: 2.55 h
rat, plasma, po, 20 mg/kg, rats, intragastric 20 mg/kg, individual animals 4-6, read-out: AUC0-t
  AUC0-t: 9590 ng·h/mL
rat, plasma, po, 20 mg/kg, rats, intragastric 20 mg/kg, individual animals 4-6, read-out: Cmax
  Cmax: 3070 ng/mL
rat, plasma, po, 20 mg/kg, rats, intragastric 20 mg/kg, individual animals 4-6, read-out: Tmax
  Tmax: 0.5 h
[5]
  AUC(0-inf): 8790 ng·h/mL
  half-life: 2.49 h
  MRT inf: 2.72 h
rat, plasma, po, 20 mg/kg, rats, intragastric 20 mg/kg, mean, read-out: Tmax
  Tmax: 0.833 h
[6]
  AUC0-t: 10100 ng·h/mL and 6710 ng·h/mL
  AUC0-∞: 10100 ng·h/mL and 6720 ng·h/mL
  Cmax: 3130 ng/mL and 2070 ng/mL
  MRT0-∞: 2.62 h and 3.00 h
  t1/2: 2.5 h and 2.51 h
rats, intravenous 2 mg/kg
  clearance classification: low clearance drug
  plasma clearance as share of rat liver blood flow (about 55 mL/min/kg): 15.7%
[7]
  AUC0-t: 4030 ng·h/mL and 3960 ng·h/mL
  AUC0-∞: 4040 ng·h/mL and 3980 ng·h/mL
  CL: 8.26 mL/min/kg and 8.38 mL/min/kg
  MRT0-∞: 1.52 h and 1.69 h
  Vss: 0.752 L/kg and 0.85 L/kg
  t1/2: 1.15 h and 3.67 h and 4.3 h
